Reference: patent US8735406B2, “8-oxodihydropurine derivative” (Dainippon Sumitomo Pharma Co., Ltd., priority 2009, dated 2014)
Read-outs that look alike come from different tables or passages of the source.

Target: T1, FAAH (Rattus norvegicus, UniProt P97612)
T1 construct: Preparation of Rat Brain Membranes Preparations (FAAH Enzyme Solution); from tissue; host or cells: rat cerebrum (brain membrane preparation)
T1 sequence (P97612 1-579): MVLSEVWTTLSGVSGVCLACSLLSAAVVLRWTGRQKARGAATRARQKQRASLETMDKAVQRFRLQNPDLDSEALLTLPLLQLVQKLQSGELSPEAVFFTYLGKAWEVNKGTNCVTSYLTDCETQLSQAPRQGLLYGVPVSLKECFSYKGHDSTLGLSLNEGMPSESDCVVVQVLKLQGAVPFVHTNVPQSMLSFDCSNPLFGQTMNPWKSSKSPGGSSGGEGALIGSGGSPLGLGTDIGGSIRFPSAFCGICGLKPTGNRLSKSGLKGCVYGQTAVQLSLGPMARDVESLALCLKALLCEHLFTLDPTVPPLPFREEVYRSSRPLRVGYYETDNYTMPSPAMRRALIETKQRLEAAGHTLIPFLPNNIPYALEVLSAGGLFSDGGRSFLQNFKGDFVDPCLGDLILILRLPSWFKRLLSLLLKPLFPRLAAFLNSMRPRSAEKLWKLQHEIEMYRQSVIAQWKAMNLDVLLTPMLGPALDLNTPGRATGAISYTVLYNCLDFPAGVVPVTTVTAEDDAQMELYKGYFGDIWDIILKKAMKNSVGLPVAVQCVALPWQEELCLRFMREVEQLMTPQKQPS
Test: Determination of FAAH inhibitory activity in rat (rat brain membrane preparations, [3H]-anandamide hydrolysis)
Type: biochemical
Experimental: Determination of FAAH Inhibitory Activity in Rat
The preparation of rat brain membranes preparations and the determination of FAAH inhibitory activity were carried out according to the Jonsson et al. method [Br. J. Pharmacol., 133, 1263 (2001)].
(1) Preparation of Rat Brain Membranes Preparations (FAAH Enzyme Solution)
The cerebrum was extracted from rats and was freeze-stored at −80° C. To the frozen cerebrum was added 4° C. enzyme homogenization buffer (20 mM HEPES-buffer pH 7.0, 1 mM MgCl2) and the mixture was homogenized using a homogenizer in ice and the homogenates were centrifuged (36,000×g for 20 minutes). After repeating operations of homogenization and centrifugation, the tissue pellets were re-suspended with 4° C. enzyme homogenization buffer. The re-suspensions were incubated at 37° C. for 15 minutes and were centrifuged (36,000×g for 20 minutes), and the resulting tissue membranes were then re-suspended with enzyme solution preparation buffer (50 mM Tris-HCl buffer pH 7.4, 1 mM EDTA, 3 mM MgCl2). The protein concentration in the resulting membrane preparations were determined according to a colorimetry method (BCA Protein Assay: Pierce Inc.) and the preparations were freeze-stored at −80° C. until used for assay.
(2) Screening of Substances for Inhibiting FAAH Activity
To the above membrane preparations (final concentration 100 μg/mL) were added a solution of test substances in DMSO (final concentration in DMSO 1%) and an assay buffer (for final preparation; 22 mM Tris-HCl (pH 7.6), 1.4 mM EDTA, 1.5% BSA, 0.6 mM MgCl2) and the resulting mixtures were preincubated at 37° C. for 10 minutes. Thereto was added a substrate solution (for final preparation; 2 nM [^3H]-Anandamide (American Radiolabeled Chemicals Inc.)+2 μM Anandamide (Sigma-Aldrich Co.)) (final assay volume of 200 μL) and the resulting mixtures were incubated at 37° C. for 10 minutes. Here in control experiment, DMSO was added instead of the solution of test substance in DMSO. Also in blank experiment, DMSO was added instead of the solution of test substance in DMSO and an enzyme solution preparation buffer was also added instead of the membrane preparations. After the incubation, thereto was added a 400 μL ice-cooled solution of chloroform and methanol (1:1 ratio by volume) and the resulting mixtures were stirred. An ethanolamine (ethanolamine-1-[^3H]) as a decomposed product was separated into an upper layer (water/methanol layer) by centrifugation (1,000×g for 10 minutes). The upper layer 200 μL was transferred into 96 well Deepwell Luma Plate-96 (PerkinElmer Inc.) and the radioactivity was measured by microplate scintillation counter (TopCount NXT™: […].). The substances showing a lower measured value compared to those of control were selected as the compound having a FAAH inhibitory activity.
(3) Determination of IC50 Value
The test substances were prepared such that the final concentration of the compounds is within the range of 0.1 nM to 1 μM and were then examined on the effect on FAAH activity according to the above-mentioned protocol.

[1] = rat brain membrane preparations, 100 nM test substance, read-out: FAAH Inhibition, Inhibition Rate at 100 nM
[2] = rat brain membrane preparations, test substance 0.1 nM to 1 μM, read-out: FAAH Inhibition IC50
[3] = at 100 nM, rat brain membrane preparations, read-out: FAAH Inhibition Inhibition Rate at 100 nM
[4] = rat brain membrane preparations, read-out: FAAH Inhibition IC50

Compound | inhibition at 0.1 µM [1] [%] | IC50 [2] [µM] | other results
CN(CCc1ccc(Cl)cc1)C(=O)n1c(=O)n(C)c2nc(C3CCCCC3)ncc21 [Example 156, N-[2-(4-Chlorophenyl)ethyl]-2-cyclohexyl-N,9-dimethyl-8-oxo-8,9-dihydro-7H-purine-7-carboxamide] | 96 | 0.01 | 
Cn1c(=O)n(C(=O)N2CCCC2)c2cnc(-c3cccc(OC(F)(F)F)c3)nc21 [compound 204] | 81 | 0.056 | 
CCOc1ccc(C2CN(C(=O)n3c(=O)n(C)c4nc(CCCOC)ncc43)C2)cc1 [Example 385] | 99 | 0.005 | 
Cn1c(=O)n(C(=O)N2CCC2)c2cnc(Cc3ccc(F)cc3)nc21 [compound 373] | 90 | 0.017 | 
COc1cccc(-c2ncc3c(n2)n(C)c(=O)n3C(=O)N(C)CCCl)c1 [Example 103, N-(2-Chloroethyl)-2-(3-methoxyphenyl)-N,9-dimethyl-8-oxo-8,9-dihydro-7H-purine-7-carboxamide] |  |  | IC50 (FAAH Inhibition IC50, rat brain membrane preparations, test substance 0.1 nM to 1 μM): 0.007 µM; inhibition at 0.1 µM (read-out: FAAH Inhibition, Inhibition Rate at 100 nM): 100%
Cn1c(=O)n(C(=O)N2CCC2)c2nc(-c3cccc(F)c3)ncc21 [compound 353] | 72 | 0.092 | 
CCCn1c(=O)n(C(=O)N(C)C)c2nc(CCc3ccc(F)cc3)ncc21 [Example 648, 2-[2-(4-Fluorophenyl)ethyl]-N,N-dimethyl-8-oxo-7-propyl-7,8-dihydro-9H-purine-9-carboxamide] |  |  | inhibition at 0.1 µM [3]: 87%; IC50 [4]: 0.027 µM
COc1cccc(-c2ncc3c(n2)n(C)c(=O)n3C(=O)N(C)Cc2cccc(F)c2)c1 [Example 72, N-(3-Fluorobenzyl)-2-(3-methoxyphenyl)-N,9-dimethyl-8-oxo-8,9-dihydro-7H-purine-7-carboxamide] | 99 | 0.023 | 
O=C(N1CCCC1)n1c(=O)[nH]c2nc(-c3ccccc3)ncc21 [Example 301, 2-phenyl-7-(pyrrolidin-1-ylcarbonyl)-7,9-dihydro-8H-purine-8-one] | 90 | 0.023 | 
COc1cccc(-c2ncc3c(n2)n(C)c(=O)n3C(=O)N2CCOCC2)c1 [Example 58] | 76 | 0.062 | 
COCc1ncc2c(n1)n(C)c(=O)n2C(=O)N1CC(c2ccccc2)C1 [Example 438, 2-(methoxymethyl)-9-methyl-7-[(3-phenylazetidin-1-yl)carbonyl]-7,9-dihydro-8H-purine-8-one] | 86 | 0.034 | 
C/C=C/c1ncc2c(n1)n(C)c(=O)n2C(=O)N1CCCC1 [Example 217] | 99 | 0.027 | 
COCc1ncc2c(n1)n(C)c(=O)n2C(=O)N1CC(c2cccc(C(F)(F)F)c2)C1 [Example 443, 2-(Methoxymethyl)-9-methyl-7-({[3-(3-trifluoromethyl)phenyl]azetidin-1-yl}carbonyl)-7,9-dihydro-8H-purine-8-one] | 98 | 0.007 | 
COc1cccc(-c2ncc3c(n2)n(C)c(=O)n3C(=O)N(C)CCOc2ccc(F)cc2)c1 [Example 91, N-[2-(4-Fluorophenoxy)ethyl]-2-(3-methoxyphenyl)-N,9-dimethyl-8-oxo-8,9-dihydro-7H-purine-7-carboxamide] | 103 | 0.001 | 
Cn1c(=O)n(C(=O)N2CCCC2)c2nc(Cc3cc(F)ccc3F)ncc21 [Example 297, 2-(2,5-Difluorobenzyl)-7-methyl-9-(pyrrolidin-1-ylcarbonyl)-7,9-dihydro-8H-purine-8-one] | 89 | 0.047 | 
CCN(C)C(=O)n1c(=O)n(C)c2nc(C)ncc21 [Example 163] | 27 | > 0.1 | 

Compound | inhibition at 0.1 µM [1] [%] | IC50 [2] [µM] | other results
CCc1ncc2c(n1)n(C)c(=O)n2C(=O)N1CC(c2ccccc2)C1 [compound 627] |  |  | inhibition at 0.1 µM [3]: 107%; IC50 [4]: 0.004 µM
Cn1c(=O)n(C(=O)N2CCCC2)c2nc(Cc3cc(F)cc(F)c3)ncc21 [Example 299, 2-(3,5-Difluorobenzyl)-7-methyl-9-(pyrrolidin-1-ylcarbonyl)-7,9-dihydro-8H-purine-8-one] | 100 | 0.037 | 
CCn1c(=O)n(C(=O)N2CC(c3cccc(F)c3)C2)c2cnc(COC)nc21 [Example 657, 9-Ethyl-7-{[3-(3-fluorophenyl)azetidin-1-yl]carbonyl}-2-(methoxymethyl)-7,9-dihydro-8H-purine-8-one] |  |  | inhibition at 0.1 µM [3]: 119%; IC50 [4]: 0.009 µM
CN(C)C(=O)n1c(=O)n(C)c2cnc(CCCOc3cccc(F)c3)nc21 [Example 395] | 78 | 0.032 | 
Cn1c(=O)n(C(=O)N2CCCC2)c2cnc(-c3ccc(C#N)cc3)nc21 [compound 181] | 101 | 0.004 | 
CN(C)C(=O)n1c(=O)n(C)c2cnc(CCOc3ccc(Cl)cc3)nc21 [compound 640] |  |  | inhibition at 0.1 µM [3]: 95%; IC50 [4]: 0.012 µM
COc1cccc(Cc2ncc3c(n2)n(C)c(=O)n3C(=O)N2CCCC2)c1 [Example 261, 2-(3-Methoxybenzyl)-9-methyl-7-(pyrrolidin-1-ylcarbonyl)-7,9-dihydro-8H-purine-8-one] | 100 | 0.016 | 
COc1ccc(N2CCN(C(=O)n3c(=O)n(C)c4nc(-c5ccccc5)ncc43)CC2)cc1 [Example 135, 7-{[4-(4-Methoxyphenyl)piperazin-1-yl]carbonyl}-9-methyl-2-phenyl-7,9-dihydro-8H-purine-8-one] | 99 | 0.005 | 
Cn1c(=O)n(C(=O)N2CCCC2)c2cnc(Cc3ccc(F)cc3F)nc21 [Example 266, 2-(2,4-Difluorobenzyl)-9-methyl-7-(pyrrolidin-1-ylcarbonyl)-7,9-dihydro-8H-purine-8-one] | 92 | 0.041 | 
CCn1c(=O)n(C(=O)N(C)C)c2nc(CCc3ccccc3F)ncc21 [Example 643] |  |  | inhibition at 0.1 µM [3]: 97%; IC50 [4]: 0.016 µM
Cn1c(=O)n(C(=O)N2CCCC2)c2cnc(CCCc3ccccc3)nc21 [Example 21] | 57 | 0.084 | 
Cn1c(=O)n(C(=O)N2CCN(c3ccc(C#N)cc3)CC2)c2cnc(-c3ccccc3)nc21 [Example 132, 4-{4-[(9-Methyl-8-oxo-2-phenyl-8,9-dihydro-7H-purine-7-yl)carbonyl]piperazin-1-yl}benzonitrile] | 99 | 0.006 | 
CCn1c(=O)n(C(=O)N2CCC2)c2nc(CCc3cccc(F)c3)ncc21 [Example 650, 9-(Azetidin-1-ylcarbonyl)-7-ethyl-2-[2-(3-fluorophenyl)ethyl]-7,9-dihydro-8H-purine-8-one] |  |  | inhibition at 0.1 µM [3]: 96%; IC50 [4]: 0.01 µM
COc1ccc(Cc2ncc3c(n2)n(C)c(=O)n3C(=O)N2CCC2)cc1 [compound 376] | 89 | 0.024 | 
CCCCc1ncc2c(n1)n(C)c(=O)n2C(=O)N(C)CC [Example 161, 2-Butyl-N-ethyl-N,9-dimethyl-8-oxo-8,9-dihydro-7H-purine-7-carboxamide] | 93 | 0.019 | 
